These results are taken from patent US20240150377A1, “MODULATORS OF CYSTIC FIBROSIS TRANSMEMBRANE CONDUCTANCE REGULATOR” (VERTEX PHARMACEUTICALS INCORPORATED, priority 2020, published 2024).

Like-named read-outs stand apart in the source and are kept apart here.

As usually defined, the EC50 is the concentration at which the effect is half-maximal.

For this test, the target named is CFTR (Homo sapiens, UniProt P13569). Kind of test: Membrane potential dye, Enteroid Assay A. The format is cell-based. The settings on record: for Ent. A Max Activity: chloride transport as % of triple combination control (Enteroid Assay A); for EC50: human enteroid cells, 18-24 hours, acute 10 μM forskolin and 300 nM ivacaftor, read-out: Ent. A EC50. The gist of the method:
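Human intestinal enteroids incubated 18-24 h at 37 °C with test compound, then loaded with 20 μM methyl oxonol (with CaCC inhibitors). Chloride transport triggered in chloride-free buffer with 10 μM forskolin, 100 μM IBMX, 300 nM Compound III; fluorescence read 15 min, expressed as % of a triple-combination corrector/potentiator control.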

Chain of CFTR (P13569 with tags, fused parts or gaps DEL508-508): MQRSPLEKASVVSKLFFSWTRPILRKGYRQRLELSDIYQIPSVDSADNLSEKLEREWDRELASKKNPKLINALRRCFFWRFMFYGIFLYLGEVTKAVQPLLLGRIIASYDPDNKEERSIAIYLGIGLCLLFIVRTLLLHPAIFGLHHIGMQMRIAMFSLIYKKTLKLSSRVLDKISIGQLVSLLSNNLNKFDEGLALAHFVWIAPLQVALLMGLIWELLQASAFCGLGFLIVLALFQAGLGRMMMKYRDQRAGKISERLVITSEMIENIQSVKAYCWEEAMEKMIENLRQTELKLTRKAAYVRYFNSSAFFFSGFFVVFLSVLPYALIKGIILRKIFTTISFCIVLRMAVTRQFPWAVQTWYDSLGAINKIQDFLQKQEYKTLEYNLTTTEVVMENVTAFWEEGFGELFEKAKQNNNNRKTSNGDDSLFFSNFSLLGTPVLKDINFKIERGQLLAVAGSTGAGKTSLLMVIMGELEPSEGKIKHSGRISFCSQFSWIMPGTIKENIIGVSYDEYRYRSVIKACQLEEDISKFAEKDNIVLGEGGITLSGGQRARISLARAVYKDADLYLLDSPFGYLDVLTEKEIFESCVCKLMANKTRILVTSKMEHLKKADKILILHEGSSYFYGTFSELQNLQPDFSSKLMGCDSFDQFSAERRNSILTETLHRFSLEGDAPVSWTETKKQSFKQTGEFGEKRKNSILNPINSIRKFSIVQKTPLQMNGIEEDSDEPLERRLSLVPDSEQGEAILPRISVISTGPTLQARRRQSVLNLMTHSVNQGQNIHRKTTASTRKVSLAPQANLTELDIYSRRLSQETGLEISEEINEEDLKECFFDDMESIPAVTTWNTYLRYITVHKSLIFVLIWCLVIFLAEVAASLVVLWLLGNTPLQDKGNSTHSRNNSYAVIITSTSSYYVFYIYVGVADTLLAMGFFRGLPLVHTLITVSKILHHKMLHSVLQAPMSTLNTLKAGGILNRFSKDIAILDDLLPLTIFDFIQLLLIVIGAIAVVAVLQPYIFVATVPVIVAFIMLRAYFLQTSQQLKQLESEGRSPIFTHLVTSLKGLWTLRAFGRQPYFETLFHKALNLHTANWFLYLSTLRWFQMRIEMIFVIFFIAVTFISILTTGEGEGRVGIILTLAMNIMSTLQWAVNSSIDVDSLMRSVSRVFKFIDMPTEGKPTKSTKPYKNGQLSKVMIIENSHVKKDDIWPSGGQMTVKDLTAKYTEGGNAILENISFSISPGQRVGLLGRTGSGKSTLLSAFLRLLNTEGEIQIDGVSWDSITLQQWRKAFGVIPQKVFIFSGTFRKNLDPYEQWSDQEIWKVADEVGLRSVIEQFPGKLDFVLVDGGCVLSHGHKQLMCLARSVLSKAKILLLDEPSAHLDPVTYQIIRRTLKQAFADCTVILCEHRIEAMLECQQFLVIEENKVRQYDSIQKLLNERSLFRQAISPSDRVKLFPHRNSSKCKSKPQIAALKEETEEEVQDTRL

With `Cc1cccc(C)c1-c1cc2nc(n1)NS(=O)(=O)c1cccc(c1)C(=O)N(Cc1ccc(C(=O)N(C)C)nc1)[C@H](CC(C)C)CO2` [Compound 981], for the setting “Table 7”, the “Ent. A Max Activity” value is given as “+++ (+++ is >60%)” and the 50% effective concentration (EC50) is less than 1000 nM.
As for `Cc1cccc(C)c1-c1cc2nc(n1)NS(=O)(=O)c1cccc(c1)C(=O)N(C)C[C@H](c1ccc(-c3ccc(C(C)(C)C)cc3)cn1)O2` [Compound 509], the “Ent. A Max Activity” value (Table 7) is recorded as “+ (+ is <30%)”.
Turning to `Cc1cccc(C)c1-c1cc2nc(n1)NS(=O)(=O)c1cccc(c1)C(=O)N(Cc1ccc(NCCO)nc1)[C@H](CC(C)C)CO2` [Compound 946], for the setting “Table 7”, the “Ent. A Max Activity” value is given as “+++ (+++ is >60%)” and the half-maximal effective concentration (EC50) is less than 1000 nM.
Regarding `Cc1cccc(C)c1-c1cc2nc(n1)NS(=O)(=O)c1cccc(c1)C(=O)N(C[C@H]1CCOC(C)(C)C1)[C@H](CC(C)C)CO2` [Compound 428], for the setting “Table 6”, the “Ent. A Max Activity” value is recorded as “+++ (+++ is >60%)” and the EC50 was less than 1000 nM.
Regarding `Cc1cccc(C)c1-c1cc2nc(n1)NS(=O)(=O)c1cccc(c1)CN(CCC(C)CC(C)(C)C)[C@H](CC(C)C)CO2` (stereo partly shown) [Compound 1022], for the setting “Table 7”, the “Ent. A Max Activity” value is “++ (++ is 30-60%)” and the 50% effective concentration (EC50) was less than 1000 nM.
The like results for `Cc1cccc(C)c1-c1cc2nc(n1)NS(=O)(=O)c1cccc(c1)C(=O)N(CCC1CCOCC1)[C@H](CC1(C(F)(F)F)CC1)CO2` [Compound 681] were, in that order, “+++ (+++ is >60%)” and less than 1000 nM.
For the compound `Cc1cccc(C)c1-c1cc2nc(n1)NS(=O)(=O)c1cccc(c1)CN(Cc1ccccc1)[C@H](CC(C)C)CO2` [Compound 1044], for the setting “Table 6”, the “Ent. A Max Activity” value was “++ (++ is 30-60%)” and the 50% effective concentration (EC50) was less than 1000 nM.
With `Cc1cccc(C)c1-c1cc2nc(n1)NS(=O)(=O)c1cccc(c1)C(=O)N(Cc1ccccc1)C(C(=O)NC1CCCCC1)CO2` (stereo not shown) [Compound 515], for the setting “Table 6”, the “Ent. A Max Activity” value was “+ (+ is <30%)” and the EC50 was 1000 to 3000 nM.
With `Cc1cccc(C)c1-c1cc2nc(n1)NS(=O)(=O)c1cccc(c1)CN(CC1CCOCC1)[C@H](CC(C)C)CO2` [Compound 1041], where the note is “Table 7”, the “Ent. A Max Activity” value was “+++ (+++ is >60%)” and the EC50 was less than 1000 nM.
As to `Cc1cccc(C)c1-c1cc2nc(n1)NS(=O)(=O)c1cccc(c1)C(=O)N(CCC(C)(C)C)[C@H](CC(C)C)CO2` [Compound 429], where the note is “Table 6”, the “Ent. A Max Activity” value was “+++ (+++ is >60%)” and the EC50 is less than 1000 nM.
Take `COCCN1Cc2cccc(c2)S(=O)(=O)Nc2nc(cc(-c3c(C)cccc3C)n2)OC[C@H]1CC(C)C` [Compound 1042]: where the note is “Table 7”, the “Ent. A Max Activity” value is reported as “+ +” and the half-maximal effective concentration (EC50) was less than 1000 nM.
Take `Cc1cccc(C)c1-c1cc2nc(n1)NS(=O)(=O)c1cccc(c1)C(=O)N(C)C[C@@H](c1ccc(C(C)(C)C)cc1)O2` (single isomer, unassigned) [Compound 12, 10-(4-tert-butylphenyl)-6-(2,6-dimethylphenyl)-12-methyl-2,2-dioxo-9-oxa-2λ^6-thia-3,5,12,19-tetrazatricyclo[12.3.1.14,8]nonadeca-1(18),4(19),5,7,14,16-hexaen-13-one]: for the setting “Table 7”, the “Ent. A Max Activity” value is “++ (++ is 30-60%)” and the half-maximal effective concentration (EC50) was less than 1000 nM.
Take `Cc1cccc(C)c1-c1cc2nc(n1)NS(=O)(=O)c1cccc(c1)C(=O)N(CC1CCCC1)[C@H](CC(C)C)CO2` [Compound 350]: where the note is “Table 6”, the “Ent. A Max Activity” value was “+++ (+++ is >60%)” and the EC50 was less than 1000 nM.
With `Cc1cccc(C)c1-c1cc2nc(n1)NS(=O)(=O)c1cccc(c1)C(=O)N(CC1CCCN1)[C@H](CC(C)C)CO2` (stereo partly shown) [Compound 344], under “Table 6”, the “Ent. A Max Activity” value is reported as “+++ (+++ is >60%)” and the EC50 is less than 1000 nM.
On to `Cc1cccc(C)c1-c1cc2nc(n1)NS(=O)(=O)c1cccc(c1)C(=O)N(C)CC(CNCCC(C)(C)C)O2` (stereo not shown) [Compound 1019], for which the “Ent. A Max Activity” value (Table 6) was “+ (+ is <30%)”.
For `Cc1cccc(C)c1-c1cc2nc(n1)NS(=O)(=O)c1cccc(c1)CN(C(=O)Cc1ccccc1)[C@H](CC(C)C)CO2` [Compound 1051], under “Table 7”, the “Ent. A Max Activity” value was “++ (++ is 30-60%)” and the EC50 is 1000 to 3000 nM.
On to `COc1ccncc1CN1C(=O)c2cccc(c2)S(=O)(=O)Nc2nc(cc(-c3c(C)cccc3C)n2)OC[C@H]1CC(C)C` [Compound 421], for which, under “Table 6”, the “Ent. A Max Activity” value is given as “+++ (+++ is >60%)” and the EC50 is less than 1000 nM.
In the case of `Cc1cccc(C)c1-c1cc2nc(n1)NS(=O)(=O)c1cccc(c1)CN(C(=O)CC1CCCCC1)[C@H](CC(C)C)CO2` [Compound 1050], under “Table 7”, the “Ent. A Max Activity” value is “+ (+ is <30%)” and the 50% effective concentration (EC50) fell in the range of 1000 to 3000 nM.
The like results for `Cc1cccc(C)c1-c1cc2nc(n1)NS(=O)(=O)c1cccc(c1)C(=O)N(Cc1ccc(N3CCC(C(C)(C)C)CC3)nc1)[C@H](CC(C)C)CO2` [Compound 941] were, in that order, “+++ (+++ is >60%)” and less than 1000 nM.
With `Cc1cccc(C)c1-c1cc2nc(n1)NS(=O)(=O)c1cccc(c1)C(=O)N(CC1CCOC1)[C@H](CC(C)C)CO2` (stereo partly shown) [Compound 357], under “Table 6”, the “Ent. A Max Activity” value is listed as “+++ (+++ is >60%)” and the EC50 is less than 1000 nM.
Turning to `Cc1cccc(C)c1-c1cc2nc(n1)NS(=O)(=O)c1cccc(c1)C(=O)N(Cc1cccn(C)c1=O)[C@H](CC(C)C)CO2` [Compound 417], under “Table 7”, the “Ent. A Max Activity” value is reported as “+++ (+++ is >60%)” and the concentration giving a half-maximal response (EC50) was less than 1000 nM.
On to `Cc1cccc(C)c1-c1cc2nc(n1)NS(=O)(=O)c1cccc(c1)C(=O)N(CC1CC3(CCN(C)CC3)C1)[C@H](CC(C)C)CO2` [Compound 89, (11R)-6-(2,6-Dimethylphenyl)-11-isobutyl-12-[(7-methyl-7-azaspiro[3.5]nonan-2-yl)methyl]-2,2-dioxo-9-oxa-2λ^6-thia-3,5,12,19-tetrazatricyclo[12.3.1.14,8]nonadeca-1(18),4(19),5,7,14,16-hexaen-13-one], for which, for the setting “Table 7”, the “Ent. A Max Activity” value was “+++ (+++ is >60%)” and the concentration for a half-maximal effect (EC50) is less than 1000 nM.
In the case of `COC1CCN(c2ccc(CN3C(=O)c4cccc(c4)S(=O)(=O)Nc4nc(cc(-c5c(C)cccc5C)n4)OC[C@H]3CC(C)C)cn2)CC1` [Compound 971], under “Table 7”, the “Ent. A Max Activity” value is “+++ (+++ is >60%)” and the EC50 is less than 1000 nM.
With `Cc1cccc(C)c1-c1cc2nc(n1)NS(=O)(=O)c1cccc(c1)C(=O)N(CC(O)CO)[C@H](CC(C)C)CO2` (stereo in doubt) [Compound 39, (11R)-12-[(2S)-2,3-Dihydroxypropyl]-6-(2,6-dimethylphenyl)-11-(2-methylpropyl)-9-oxa-2λ^6-thia-3,5,12,19-tetraazatricyclo[12.3.1.14,8]nonadeca-1(17),4(19),5,7,14(18),15-hexaene-2,2,13-trione], for the setting “Table 6”, the “Ent. A Max Activity” value is “+++ (+++ is >60%)” and the half-maximal effective concentration (EC50) was less than 1000 nM.
Turning to `Cc1cccc(C)c1-c1cc2nc(n1)NS(=O)(=O)c1cccc(c1)C(=O)N(CCN1CCOCC1)[C@H](CC(C)C)CO2` [Compound 1108], where the note is “Table 6”, the “Ent. A Max Activity” value is on record as “+++ (+++ is >60%)” and the EC50 is less than 1000 nM.
Consider `Cc1cccc(C)c1-c1cc2nc(n1)NS(=O)(=O)c1cccc(c1)C(=O)N(CCC(C)(C)C)[C@H](CC1(C(F)(F)F)CC1)CO2` [Compound 686], for which, where the note is “Table 7”, the “Ent. A Max Activity” value is on record as “+ (+ is <30%)” and the EC50 is less than 1000 nM.
For `Cc1cccc(C)c1-c1cc2nc(n1)NS(=O)(=O)c1cccc(c1)C(=O)N(Cc1ccc(N3CCC4(CCC4)CC3)nc1)[C@H](CC(C)C)CO2` [Compound 936] the same measures were “+++ (+++ is >60%)” and less than 1000 nM.
